From US20150181885A1, “METHOD FOR CONTROLLING FUNGAL DISEASES IN MUSHROOM PRODUCTION” (priority 2012, published 2015) come the findings set out here.

The structures appear in SMILES notation.

One assay deals with Verticillium fungicola. The assay is described as follows: In vitro antifungal activity assay in 96-well microtiter plates against Verticillium fungicola. In kind it is cell-based. The following applies: 3 days incubation at 25° C. The procedure: The following compositions are tested: […] Subsequently, 100 μl of a Verticillium fungicola suspension prepared in PCB medium is used to inoculate each well with 5.0×10^3 spores/ml. […] After incubation of the microtiter plates for 3 days at 25° C., the in vitro antifungal activity (%) of the individual active ingredients was assessed by calculating the reduction in mould growth observed in the presence of the active ingredient in comparison to the mould growth observed in the absence of the active ingredient. The expected antifungal activity (E in %) of the active ingredient combination was calculated according to the Colby equation (Colby, 1967): […] wherein X and Y are the observed antifungal activities (in %) of the individual active ingredients X and Y, respectively.

For the next assay, the system named is Trichoderma harzianum. Put plainly: In vitro antifungal activity assay in 96-well microtiter plates against Trichoderma harzianum. Format: cell-based. The procedure:
Subsequently, 100 μl of a Verticillium fungicola suspension prepared in PCB medium is used to inoculate each well with 5.0×10^3 spores/ml.
After incubation of the microtiter plates for 3 days at 25° C., the in vitro antifungal activity (%) of the individual active ingredients was assessed by calculating the reduction in mould growth observed in the presence of the active ingredient in comparison to the mould growth observed in the absence of the active ingredient. The expected antifungal activity (E in %) of the active ingredient combination was calculated according to the Colby equation (Colby, 1967): […]
wherein X and Y are the observed antifungal activities (in %) of the individual active ingredients X and Y, respectively. If the observed antifungal activity (O in %) of the combination exceeds the expected antifungal activity (E in %) of the combination and the resulting synergy factor O/E is thus >1.0, the combined application of the active ingredients leads to a synergistic antifungal effect.
The experiment was conducted as described in Example 1, except for the fact that the following compositions were tested: • Control (no active ingredient) • 1.25 ppm Natamycin • 5, 10 or 15 ppm thiophanate-methyl • 1.25 ppm Natamycin+5 ppm thiophanate-methyl • 1.25 ppm Natamycin+10 ppm thiophanate-methyl • 1.25 ppm Natamycin+15 ppm thiophanate-methyl
Furthermore, Trichoderma harzianum was used for inoculation. After 3 and 5 days of incubation at 25° C., the antifungal activity (in %) of the individual and combined active ingredients was determined according to the method described in Example 1.

Regarding `C[C@@H]1C/C=C/C=C/C=C/C=C/[C@H](O[C@@H]2O[C@H](C)[C@@H](O)[C@H](N)[C@@H]2O)C[C@@H]2O[C@](O)(C[C@@H](O)C[C@H]3O[C@@H]3/C=C/C(=O)O1)C[C@H](O)[C@H]2C(=O)O` [Natamycin, natamycin], in the assay on Verticillium fungicola (Natamycin 2.5 ppm), the “Observed antifungal activity O (%)” value came to 0%.

In the case of `COC(=O)NC(=S)Nc1ccccc1NC(=S)NC(=O)OC` [Thiophanate-methyl, dimethyl 4,4′-(o-phenylene)bis(3-thioallophanate)], the “Observed antifungal activity O (%)” value in the assay on Verticillium fungicola (Thiophanate-methyl 15 ppm) is reported as 50%; with Verticillium fungicola (Thiophanate-methyl 20 ppm) it was 50%; with Trichoderma harzianum (Thiophanate-methyl 5 ppm, 3 days incubation at 25° C.), 0%; with Trichoderma harzianum (Thiophanate-methyl 10 ppm, 5 days incubation at 25° C.), 0%; in the assay on Trichoderma harzianum (Thiophanate-methyl 15 ppm, 5 days incubation at 25° C.), 0%.
